According to ChEMBL document CHEMBL5365420, “Kinetics, Thermodynamics, and Structural Effects of Quinoline-2-Carboxylates, Zinc-Binding Inhibitors of New Delhi Metallo-β-lactamase-1 Re-sensitizing Multidrug-Resistant Bacteria for Carbapenems” (J Med Chem, 2023):

Columns and labels:
Escherichia coli [1] = assay: Antibacterial activity against clinical isolate Escherichia coli K12 J53-ST10 618/15 expressing blaNDM-1 assessed as meropenem MIC at 80 uM measured after 20 hrs by broth microdilution assay (reference value: 21.3 mg/L); type: functional
[2] = Inhibition of GIM1 (unknown origin) incubated for 15 mins by absorbance based microplate reader analysis; design: species or system Bacteria
Escherichia coli [3] = assay: Antibacterial activity against clinical isolate Escherichia coli 371/12 expressing blaNDM-7 co-expressing blaCTX-M-15 and blaOXA-1 assessed as meropenem MIC at 80 uM measured after 20 hrs by broth microdilution assay (reference value: 21.3 mg/L); type: functional
Escherichia coli [4] = assay: Antibacterial activity against clinical isolate Escherichia coli K12 J53-ST10 696/17 expressing blaNDM-1 co-expressing blaCMY-4 assessed as meropenem MIC at 80 uM measured after 20 hrs by broth microdilution assay (reference value: 21.3 mg/L); type: functional
Klebsiella pneumoniae [5] = assay: Antibacterial activity against clinical isolate Klebsiella pneumoniae 50/20 expressing blaNDM-5 co-expressing blaTEM-1 and blaSHV-1 assessed as meropenem MIC at 80 uM measured after 20 hrs by broth microdilution assay (reference value: 21.3 mg/L); type: functional
[6] = Inhibition of VIM-2 (unknown origin) incubated for 15 mins by absorbance based microplate reader analysis; design: species or system Bacteria
Klebsiella pneumoniae [7] = assay: Antibacterial activity against clinical isolate Klebsiella pneumoniae 50/11 expressing blaNDM-1 co-expressing blaTEM-1/blaSHV-28/blaTEM-1/blaCTX-M-15 and blaOXA-1 assessed as meropenem MIC at 40 uM measured after 20 hrs by broth microdilution assay (reference value: 10.65 mg/L); type: functional
Klebsiella pneumoniae [8] = assay: Antibacterial activity against clinical isolate Klebsiella pneumoniae ST23213/19 expressing blaNDM-1 co-expressing blaOXA-48/blaSHV-11/blaCTX-M-15 and blaOXA-1 assessed as meropenem MIC at 80 uM measured after 20 hrs by broth microdilution assay (reference value: 21.3 mg/L); type: functional
Klebsiella pneumoniae [9] = assay: Antibacterial activity against clinical isolate Klebsiella pneumoniae ST23213/19 expressing blaNDM-1 co-expressing blaOXA-48/blaSHV-11/blaCTX-M-15 and blaOXA-1 assessed as meropenem MIC at 40 uM measured after 20 hrs by broth microdilution assay (reference value: 10.65 mg/L); type: functional
Klebsiella pneumoniae [10] = assay: Antibacterial activity against clinical isolate Klebsiella pneumoniae 50/11 expressing blaNDM-1 co-expressing blaTEM-1/blaSHV-28/blaTEM-1/blaCTX-M-15 and blaOXA-1 assessed as meropenem MIC at 80 uM measured after 20 hrs by broth microdilution assay (reference value: 21.3 mg/L); type: functional
Acinetobacter baumannii [11] = assay: Antibacterial activity against clinical isolate Acinetobacter baumannii IC 19/09 expressing blaNDM-1 co-expressing blaOXA-64 assessed as meropenem MIC at 80 uM measured after 20 hrs by broth microdilution assay (reference value: 21.3 mg/L); type: functional
Escherichia coli [12] = assay: Antibacterial activity against clinical isolate Escherichia coli K12 J53-ST10 618/15 expressing blaNDM-1 assessed as meropenem MIC at 40 uM measured after 20 hrs by broth microdilution assay (reference value: 10.65 mg/L); type: functional
Escherichia coli [13] = assay: Antibacterial activity against clinical isolate Escherichia coli ST1012/10 expressing blaNDM-1 co-expressing blaTEM-1/blaCTX-M-15/blaOXA-1 and blaOXA-2 assessed as meropenem MIC at 40 uM measured after 20 hrs by broth microdilution assay (reference value: 10.65 mg/L); type: functional
[14] = Inhibition of IMP-1 (unknown origin) expressed in Escherichia coli BL21-DE3 incubated for 15 mins by absorbance based microplate reader analysis; design: species or system Bacteria
[15] = biological target: Carbonic anhydrase 2 (Homo sapiens) (UniProt P00918); assay: Inhibition of human CA2 at 10 uM using pNPA as substrate preincubated for 15 mins followed by substrate by absorbance based analysis relative to control
Escherichia coli [16] = assay: Antibacterial activity against clinical isolate Escherichia coli K12 J53-ST10 684/18 expressing blaNDM-1 co-expressing blaCMY-2 and blaOXA-10 assessed as meropenem MIC at 40 uM measured after 20 hrs by broth microdilution assay (reference value: 10.65 mg/L); type: functional
Escherichia coli [17] = assay: Antibacterial activity against clinical isolate Escherichia coli 371/12 expressing blaNDM-7 co-expressing blaCTX-M-15 and blaOXA-1 assessed as meropenem MIC at 40 uM measured after 20 hrs by broth microdilution assay (reference value: 10.65 mg/L); type: functional
Klebsiella pneumoniae [18] = assay: Antibacterial activity against clinical isolate Klebsiella pneumoniae ST1493/10 expressing blaNDM-1 co-expressing blaCMY-2like/blaTEM-1/blaCTX-M-15/blaSHV-28/blaOXA-1 and blaOXA-9 assessed as meropenem MIC at 40 uM measured after 20 hrs by broth microdilution assay (reference value: 10.65 mg/L); type: functional
Escherichia coli [19] = assay: Antibacterial activity against clinical isolate Escherichia coli K12 J53-ST10 684/18 expressing blaNDM-1 co-expressing blaCMY-2 and blaOXA-10 assessed as meropenem MIC at 80 uM measured after 20 hrs by broth microdilution assay (reference value: 21.3 mg/L); type: functional
Escherichia coli [20] = assay: Antibacterial activity against clinical isolate Escherichia coli ST1012/10 expressing blaNDM-1 co-expressing blaTEM-1/blaCTX-M-15/blaOXA-1 and blaOXA-2 assessed as meropenem MIC at 80 uM measured after 20 hrs by broth microdilution assay (reference value: 21.3 mg/L); type: functional
[21] = biological target: Metallo-beta-lactamase type 2 (Bacteria, UniProt C7C422)
Chain of Metallo-beta-lactamase type 2 (C7C422 whole entry): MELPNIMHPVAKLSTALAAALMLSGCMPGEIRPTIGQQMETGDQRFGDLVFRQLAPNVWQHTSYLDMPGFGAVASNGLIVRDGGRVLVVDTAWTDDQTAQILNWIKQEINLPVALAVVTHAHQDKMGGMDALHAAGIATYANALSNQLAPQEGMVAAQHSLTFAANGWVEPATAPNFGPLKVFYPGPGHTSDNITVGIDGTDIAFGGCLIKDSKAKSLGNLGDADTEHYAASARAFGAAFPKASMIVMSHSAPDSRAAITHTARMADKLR
Description: Inhibition of C-terminal 6His-tagged full length NDM-1 (unknown origin) expressed in Escherichia coli BL21-DE3 using nitrocefin as substrate incubated for 15 mins followed by substrate addition by absorbance based microplate reader analysis

[22] = biological target: Histone deacetylase 1 (Homo sapiens) (UniProt Q13547); assay: Inhibition of C-terminal 6His/FLAG-tagged human recombinant full-length HDAC1 (1 to 482(end) residues) at 10 uM using Boc-Lys-(Ac)-AMC as substrate incubated for 10 mins followed by substrate addition measured after 1 hr by fluorescence based analysis relative to control; conditions: time 70.0 min
Chain of Histone deacetylase 1 (Homo sapiens) (Q13547 whole entry): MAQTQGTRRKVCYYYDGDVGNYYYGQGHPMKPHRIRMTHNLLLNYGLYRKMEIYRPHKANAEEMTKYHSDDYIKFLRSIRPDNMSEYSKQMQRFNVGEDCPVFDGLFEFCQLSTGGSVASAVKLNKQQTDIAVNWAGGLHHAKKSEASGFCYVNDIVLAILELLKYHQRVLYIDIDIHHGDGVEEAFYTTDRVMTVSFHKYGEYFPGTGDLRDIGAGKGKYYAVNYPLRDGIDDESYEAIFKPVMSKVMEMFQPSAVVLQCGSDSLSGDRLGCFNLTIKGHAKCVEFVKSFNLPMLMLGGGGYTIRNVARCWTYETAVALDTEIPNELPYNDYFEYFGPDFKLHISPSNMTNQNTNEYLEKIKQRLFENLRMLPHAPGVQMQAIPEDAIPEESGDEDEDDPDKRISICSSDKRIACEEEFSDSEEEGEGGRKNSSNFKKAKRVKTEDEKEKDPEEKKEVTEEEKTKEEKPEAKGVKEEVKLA

Escherichia coli [23] = assay: Antibacterial activity against clinical isolate Escherichia coli K12 J53-ST10 696/17 expressing blaNDM-1 co-expressing blaCMY-4 assessed as meropenem MIC at 40 uM measured after 20 hrs by broth microdilution assay (reference value: 10.65 mg/L); type: functional
Klebsiella pneumoniae [24] = assay: Antibacterial activity against clinical isolate Klebsiella pneumoniae 62/07 expressing blaVIM-19 co-expressing blaSHV-1/blaCTX-M-14 and blaCMY-4 assessed as meropenem MIC at 40 uM measured after 20 hrs by broth microdilution assay (reference value: 10.65 mg/L); type: functional
Klebsiella pneumoniae [25] = assay: Antibacterial activity against clinical isolate Klebsiella pneumoniae 62/07 expressing blaVIM-19 co-expressing blaSHV-1/blaCTX-M-14 and blaCMY-4 assessed as meropenem MIC at 80 uM measured after 20 hrs by broth microdilution assay (reference value: 21.3 mg/L); type: functional
Escherichia coli [26] = assay: Antibacterial activity against clinical isolate Escherichia coli K12 J53-ST10 699/15 expressing blaNDM-1 assessed as meropenem MIC at 40 uM measured after 20 hrs by broth microdilution assay (reference value: 10.65 mg/L); type: functional
[27] = Selectivity ratio of Ki for human recombinant MMP-2 CD to Ki for C-terminal 6His-tagged full length NDM-1 (unknown origin)
[28] = biological target: T1, 72 kDa type IV collagenase (Homo sapiens, UniProt P08253); assay: Inhibition of human recombinant MMP-2 CD at 10 uM using OMNIMMP as substrate incubated for 30 mins by fluorescence based analysis relative to control
Target sequence in this assay (P08253 110-660 limits assumed): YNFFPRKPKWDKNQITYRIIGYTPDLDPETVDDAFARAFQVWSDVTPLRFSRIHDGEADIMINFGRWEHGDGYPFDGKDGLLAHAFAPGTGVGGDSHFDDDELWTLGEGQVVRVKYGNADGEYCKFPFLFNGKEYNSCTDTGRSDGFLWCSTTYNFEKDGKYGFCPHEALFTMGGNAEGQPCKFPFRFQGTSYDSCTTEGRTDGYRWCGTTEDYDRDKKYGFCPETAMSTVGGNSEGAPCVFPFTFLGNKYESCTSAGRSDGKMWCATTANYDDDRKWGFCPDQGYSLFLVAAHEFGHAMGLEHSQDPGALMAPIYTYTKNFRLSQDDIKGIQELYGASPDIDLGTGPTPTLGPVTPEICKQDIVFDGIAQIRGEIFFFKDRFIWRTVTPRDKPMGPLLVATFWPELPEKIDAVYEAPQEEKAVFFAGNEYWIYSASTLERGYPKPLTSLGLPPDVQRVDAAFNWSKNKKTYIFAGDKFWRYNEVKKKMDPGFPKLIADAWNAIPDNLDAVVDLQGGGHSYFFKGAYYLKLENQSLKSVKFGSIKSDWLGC

Klebsiella pneumoniae [29] = assay: Antibacterial activity against clinical isolate Klebsiella pneumoniae ST1493/10 expressing blaNDM-1 co-expressing blaCMY-2like/blaTEM-1/blaCTX-M-15/blaSHV-28/blaOXA-1 and blaOXA-9 assessed as meropenem MIC at 80 uM measured after 20 hrs by broth microdilution assay (reference value: 21.3 mg/L); type: functional
Klebsiella pneumoniae [30] = assay: Antibacterial activity against clinical isolate Klebsiella pneumoniae 50/20 expressing blaNDM-5 co-expressing blaTEM-1 and blaSHV-1 assessed as meropenem MIC at 40 uM measured after 20 hrs by broth microdilution assay (reference value: 10.65 mg/L); type: functional
Escherichia coli [31] = assay: Antibacterial activity against clinical isolate Escherichia coli K12 J53-ST10 699/15 expressing blaNDM-1 assessed as meropenem MIC at 80 uM measured after 20 hrs by broth microdilution assay (reference value: 21.3 mg/L); type: functional
[32] = biological target: T1, 72 kDa type IV collagenase; assay: Binding affinity to human recombinant MMP-2 CD assessed as inhibition constant using OMNIMMP as substrate incubated for 30 mins by fluorescence based analysis
Target sequence in this assay (P08253 whole entry): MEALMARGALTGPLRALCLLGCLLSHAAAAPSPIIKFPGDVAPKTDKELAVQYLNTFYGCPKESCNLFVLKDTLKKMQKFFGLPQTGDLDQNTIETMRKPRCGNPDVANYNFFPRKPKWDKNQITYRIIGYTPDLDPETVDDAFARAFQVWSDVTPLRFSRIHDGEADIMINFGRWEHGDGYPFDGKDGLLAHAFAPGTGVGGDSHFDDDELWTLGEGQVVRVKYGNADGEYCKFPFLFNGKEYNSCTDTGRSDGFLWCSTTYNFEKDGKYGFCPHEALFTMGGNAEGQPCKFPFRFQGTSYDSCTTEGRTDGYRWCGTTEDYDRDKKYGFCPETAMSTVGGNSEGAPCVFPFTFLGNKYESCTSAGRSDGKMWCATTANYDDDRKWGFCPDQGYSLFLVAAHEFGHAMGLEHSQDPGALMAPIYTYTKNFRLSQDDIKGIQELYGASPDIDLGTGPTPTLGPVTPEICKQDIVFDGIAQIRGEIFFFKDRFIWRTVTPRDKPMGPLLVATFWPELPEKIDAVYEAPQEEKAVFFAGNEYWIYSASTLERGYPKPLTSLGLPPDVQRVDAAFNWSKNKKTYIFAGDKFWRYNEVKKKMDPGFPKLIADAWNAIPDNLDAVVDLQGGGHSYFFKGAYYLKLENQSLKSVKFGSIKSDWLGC

Acinetobacter baumannii [33] = assay: Antibacterial activity against clinical isolate Acinetobacter baumannii IC 19/09 expressing blaNDM-1 co-expressing blaOXA-64 assessed as meropenem MIC at 40 uM measured after 20 hrs by broth microdilution assay (reference value: 10.65 mg/L); type: functional

What does the source list for `CS(=O)(=O)Nc1cccc2ccc(C(=O)O)nc12`?
MIC (Escherichia coli [1]): ≤ 0.125 µg/mL; IC50 [2]: 50.1 µM; MIC (Escherichia coli [3]): 0.25 µg/mL; MIC (Escherichia coli [4]): ≤ 0.125 µg/mL; MIC (Klebsiella pneumoniae [5]): ≤ 0.125 µg/mL; IC50 [6]: 0.79 µM; MIC (Klebsiella pneumoniae [7]): ≤ 0.125 µg/mL; MIC (Klebsiella pneumoniae [8]): 16 µg/mL; MIC (Klebsiella pneumoniae [9]): 16 µg/mL; MIC (Klebsiella pneumoniae [10]): ≤ 0.125 µg/mL; MIC (Acinetobacter baumannii [11]): 2 µg/mL; MIC (Escherichia coli [12]): ≤ 0.125 µg/mL; MIC (Escherichia coli [13]): ≤ 0.125 µg/mL; IC50 [14]: 7.27 µM; inhibition [15]: < 5%; MIC (Escherichia coli [16]): ≤ 0.125 µg/mL; MIC (Escherichia coli [17]): 2 µg/mL; MIC (Klebsiella pneumoniae [18]): 4 µg/mL; MIC (Escherichia coli [19]): ≤ 0.125 µg/mL; MIC (Escherichia coli [20]): ≤ 0.125 µg/mL; IC50 [21]: 1.64 µM; inhibition [22]: < 5%; MIC (Escherichia coli [23]): ≤ 0.125 µg/mL; MIC (Klebsiella pneumoniae [24]): 1 µg/mL; MIC (Klebsiella pneumoniae [25]): 0.5 µg/mL; MIC (Escherichia coli [26]): ≤ 0.125 µg/mL; Ratio Ki [27]: 5; inhibition [28]: > 90%; MIC (Klebsiella pneumoniae [29]): 2 µg/mL; MIC (Klebsiella pneumoniae [30]): ≤ 0.125 µg/mL; MIC (Escherichia coli [31]): ≤ 0.125 µg/mL; Ki [32]: 4.08 µM; MIC (Acinetobacter baumannii [33]): 4 µg/mL
